pEC50, pIC50: −log10 of the molar value. Bounds are passed on as bounds.

One experiment relates to MC65 cells. The experiment is described as follows: protection from APP C99-induced cell death in MC65 cells. Format: cell-based. The source says: The reported procedures for the inhibitory activities of ACAT (Tomoda, H.; Nishida, H.; Masuma, R.; Cao, J.; Okuda, S.; Omura, S. J. Antibiot. 1991, 44, 136-143), CETP (Tomoda, H.; Tabata, N.; Masuma, R.; Si, S.-Y.; Omura, S. J. Antibiot. 1998, 51, 618-623; D. H. Hua et al. Tetrahedron 2003, 59, 4795-4803), L1210 tumor cells (Perchellet, E. M.; Ladesich, J. B.; Magill, M. J.; Chen, Y.; Hua, D. H.; Perchellet, J. P. Anti-Cancer Drugs 1999, 10, 489-504), and APP C99-induced cell death (Jin, L.-W.; Hua, D. H.; Shie, F.-S.; Maezawa, I.; Sopher, B.; Martin, G. M. J. Mol. Neurosci. 2002, 19, 57-61) were followed. […]

The test system of a further experiment is ACAT. Description: inhibition of ACAT. Format: biochemical.
The target in the next experiment is T1, CETP (Homo sapiens, UniProt P11597).
T1 sequence (P11597 18-493): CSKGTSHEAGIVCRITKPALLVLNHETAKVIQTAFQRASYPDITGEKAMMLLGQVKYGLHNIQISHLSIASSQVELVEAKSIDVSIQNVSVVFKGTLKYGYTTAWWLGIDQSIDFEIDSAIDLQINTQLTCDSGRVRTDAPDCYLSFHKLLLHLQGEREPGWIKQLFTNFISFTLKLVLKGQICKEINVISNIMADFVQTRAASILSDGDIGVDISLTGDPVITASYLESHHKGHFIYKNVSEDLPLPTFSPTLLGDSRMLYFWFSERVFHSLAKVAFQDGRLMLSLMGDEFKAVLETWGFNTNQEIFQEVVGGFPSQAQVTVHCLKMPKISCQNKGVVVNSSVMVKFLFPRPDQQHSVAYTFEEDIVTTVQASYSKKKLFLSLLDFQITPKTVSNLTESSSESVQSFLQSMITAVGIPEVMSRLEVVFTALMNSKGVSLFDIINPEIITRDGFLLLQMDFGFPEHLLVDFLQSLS
The experiment is described as follows: inhibition of CETP. In kind it is biochemical. An excerpt: The reported procedures for the inhibitory activities of ACAT (Tomoda, H.; Nishida, H.; Masuma, R.; Cao, J.; Okuda, S.; Omura, S. J. Antibiot. 1991, 44, 136-143), CETP (Tomoda, H.; Tabata, N.; Masuma, R.; Si, S.-Y.; Omura, S. J. Antibiot. 1998, 51, 618-623; D. H. Hua et al. Tetrahedron 2003, 59, 4795-4803), L1210 tumor cells (Perchellet, E. M.; Ladesich, J. B.; Magill, M. J.; Chen, Y.; Hua, D. H.; Perchellet, J. P. Anti-Cancer Drugs 1999, 10, 489-504), and APP C99-induced cell death (Jin, L.-W.; Hua, D. H.; Shie, F.-S.; Maezawa, I.; Sopher, B.; Martin, G. M. J. Mol. Neurosci. 2002, 19, 57-61) were followed.
(§1) ACAT mediates the esterification of intracellular cholesterol and is believed to play a key role in lipoprotein metabolism and atherogenesis (for a review: Suckling, K. E.; Stange, E. F. J. Lipid Res. 1985, 26, 647-671). […] The inhibition of CETP with these three compounds was then studied. CETP, a hydrophobic neutral glycoprotein, mediates the transfer of cholesteryl ester from high-density lipoprotein to low-density lipoprotein (For a review: Tall, A. R. J. Lipid Res. 1993, 34, 1255-1274). […] The N-(p-nitrophenyl)aspartamide portion of 104 was attached in order to study whether 104 was a substrate of […] (For a review: VIIIa, P.; Kaufmann, S. H.; Earnshaw, W. C. Trends Biochem. Sci. 1997, 22, 388-393). […] Compound 105 is cytotoxic to L1210 tumor cells, with IC50=30 μM. Aggarwal et al., J. Chem. Soc., Perkin Trans I (1999) 3315-3321 is incorporated by reference to the extent not inconsistent with the disclosure herewith.

The next experiment concerns caspase 103. The experiment is described as follows: in vitro caspase substrate study (release of p-nitroaniline). In kind it is biochemical.
Excerpt: as §1

`C=C(C)[C@H]1CCC2=Cc3c(cc(CC(=O)N[C@@H](CC(=O)O)C(=O)Nc4ccc([N+](=O)[O-])cc4)oc3=O)O[C@H]2C1` [Compound 104]: the “protection of MC65 cells from death (in words)” value with MC65 cells (MC65 cells conditionally expressing partial APP fusion protein, absence of tetracycline) is “protected from death”. In the experiment on MC65 cells (MC65 cells in the absence of tetracycline), this molecule gave a pEC50 of 5.70. The pIC50 with ACAT is 3.77; against CETP, < 3.74. Besides, the “substrate of caspase 103 (release of p-nitroaniline)” value in the experiment on caspase 103 was “not a substrate”.

These data come from US7935726B1, “Tricyclic pyrones” (Kansas State University Research Foundation, priority 1999, dated 2011).
